This is an account of results in ChEMBL document CHEMBL5625168, “Purine containing carbonucleoside phosphonate analogues as novel chemotype for Plasmodium falciparum Inhibition” (Eur J Med Chem, 2023).

pIC50, pKd: −log10 of the molar value.

The test system of one test is Plasmodium falciparum. Description: Antimalarial activity against Plasmodium falciparum 3D7 infected in RBC cells assessed as inhibition of parasite growth incubated for 48 hrs by [3H]hypoxanthine incorporation assay. In kind it is functional, organism-based.
Test [1] has as its target T1, IMP-specific 5'-nucleotidase 1 (Plasmodium falciparum (isolate 3D7)) (UniProt A0A144A134).
T1 sequence (whole entry): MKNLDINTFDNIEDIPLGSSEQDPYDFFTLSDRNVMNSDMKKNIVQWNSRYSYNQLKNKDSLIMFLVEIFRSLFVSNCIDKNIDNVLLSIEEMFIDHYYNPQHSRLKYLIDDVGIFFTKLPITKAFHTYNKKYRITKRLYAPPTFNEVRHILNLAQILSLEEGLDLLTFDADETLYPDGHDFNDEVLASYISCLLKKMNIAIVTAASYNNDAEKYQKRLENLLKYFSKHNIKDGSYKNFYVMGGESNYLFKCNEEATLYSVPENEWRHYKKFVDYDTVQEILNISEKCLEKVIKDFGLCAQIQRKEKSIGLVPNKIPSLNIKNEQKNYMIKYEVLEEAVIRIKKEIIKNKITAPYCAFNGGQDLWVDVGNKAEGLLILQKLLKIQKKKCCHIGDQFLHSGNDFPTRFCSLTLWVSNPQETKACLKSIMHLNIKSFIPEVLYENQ
Briefly: Binding affinity to recombinant Plasmodium falciparum 3D7 ISN1 assessed as change in melting temperature at 1 uM by differential scanning fluorimetry method. (DSF heats the sample and reads unfolding from a dye or from intrinsic fluorescence.)

The target of test [2] is T1, IMP-specific 5'-nucleotidase 1 (Plasmodium falciparum (isolate 3D7)). Briefly: Binding affinity to recombinant Plasmodium falciparum 3D7 ISN1 assessed as change in melting temperature at 10 uM by differential scanning fluorimetry method.
The target is the same in test [3]. Description: Binding affinity to recombinant Plasmodium falciparum 3D7 ISN1 assessed as change in melting temperature at 100 uM by differential scanning fluorimetry method.
For test [4], the target named is T2, IMP-specific 5'-nucleotidase 1 (Plasmodium falciparum (isolate 3D7), UniProt A0A144A134).
T2 sequence (A0A144A134 whole entry): T1 sequence (whole entry)
Briefly: Binding affinity to recombinant Plasmodium falciparum 3D7 ISN1 assessed as dissociation constant by thermophoresis analysis.

[5] abbreviates: Plasmodium falciparum, 3D7, Erythrocyte.

Consider `Nc1nc2c(ncn2[C@H]2CC[C@](O)(CP(=O)(O)O)C2)c(=O)[nH]1`, for which, in the test with Plasmodium falciparum (setting [5]), the pIC50 – broadly, the IC50 on a negative log10 scale, so that one unit is a factor of ten – is 4.38.

As for `Nc1nc2c(ncn2[C@@H]2CC[C@](O)(CP(=O)(O)O)C2)c(=O)[nH]1`, the pIC50 with Plasmodium falciparum (setting [5]) was 5.89.

Turning to `Nc1nc2c(ncn2[C@@H]2CC[C@@](O)(CP(=O)(O)O)C2)c(=O)[nH]1`, the pIC50 with Plasmodium falciparum (setting [5]) is less than 4.00.

Consider `Nc1nc2c(ncn2[C@H]2CC[C@@](O)(CP(=O)(O)O)C2)c(=O)[nH]1`, for which, in the test on Plasmodium falciparum (rbc), the pIC50 was 4.36.

With `Nc1ncnc2c1ncn2[C@H]1CC[C@@](O)(CP(=O)(O)O)C1`, the pIC50 in the test with Plasmodium falciparum (setting [5]) is 4.83.

In the case of `COC1NC(N)=Nc2c1ncn2[C@H]1CC[C@@](O)(CCP(=O)(O)O)C1` (mixture of isomers), the pIC50 in the test on Plasmodium falciparum (setting [5]) is 4.99.

Take `Nc1nc2c(ncn2[C@H]2C=C[C@@](O)(CP(=O)(O)O)C2)c(=O)[nH]1` (racemic): the ΔTm (usually the change in melting temperature against a reference sample) in test [1] is -0.9 °C; in test [2], 1.1 °C; in test [3], 4.1 °C. In addition, in test [4], the pKd (in general, the Kd on a negative log10 scale, so that one unit is a factor of ten) is 4.71. Moreover, the pIC50 in the test with Plasmodium falciparum (setting [5]) was 6.00.

Consider `Nc1nc2c(ncn2[C@@H]2CC(CP(=O)(O)O)=C[C@H]2O)c(=O)[nH]1` (racemic), for which the pIC50 in the test on Plasmodium falciparum (setting [5]) was less than 4.00.

For `O=P(O)(O)C[C@]1(O)CC[C@H](n2cnc3c(NCc4ccccc4)nc(Cl)nc32)C1` (racemic), the pIC50 in the test with Plasmodium falciparum (setting [5]) was 4.17.

On to `Nc1nc2c(ncn2[C@H]2CC[C@@](O)(/C=C/P(=O)(O)O)C2)c(=O)[nH]1` (racemic), for which the pIC50 with Plasmodium falciparum (setting [5]) was 4.30.

Turning to `Nc1nc2c(ncn2[C@H]2CC[C@@](O)(CCP(=O)(O)O)C2)c(=O)[nH]1` (racemic), the negative logarithm of the IC50 (pIC50) in the test on Plasmodium falciparum (setting [5]) is 5.15.

As for `O=P(O)(O)C[C@]1(O)CC[C@H](n2cnc3c(NCc4ccccc4)nc(NCc4ccccc4)nc32)C1` (racemic), the pIC50 in the test with Plasmodium falciparum (setting [5]) is 4.39.

In the case of `Nc1ncnc2c1ncn2[C@@H]1CC(CP(=O)(O)O)=C[C@H]1O` (racemic), the pIC50 with Plasmodium falciparum (setting [5]) is less than 4.00.

For the molecule `Nc1nc2c(ncn2[C@H]2CC[C@@](O)(CP(=O)(O)O)C2)c(=O)[nH]1` (racemic) [listing 1 of 2 here], the pKd in test [4] is 4.62. The negative logarithm of the IC50 (pIC50) in the test with Plasmodium falciparum (rbc) was 5.36.

Turning to `Nc1nc(N)c2ncn([C@H]3CC[C@@](O)(CP(=O)(O)O)C3)c2n1` (racemic), the negative-log IC50 (pIC50) in the test on Plasmodium falciparum (setting [5]) was 5.06.

As to `COc1nc(N)c2ncn([C@H]3CC[C@@](O)(CP(=O)(O)O)C3)c2n1` (racemic), in the test with Plasmodium falciparum (setting [5]), the pIC50 was 5.66.

On to `COc1nc(Cl)nc2c1ncn2[C@H]1CC[C@@](O)(CP(=O)(O)O)C1` (racemic), for which the pIC50 with Plasmodium falciparum (setting [5]) was less than 4.00.

On to `Nc1ncnc2c1ncn2[C@H]1CC[C@@](O)(/C=C/P(=O)(O)O)C1` (racemic), for which, in the test with Plasmodium falciparum (setting [5]), the negative logarithm of the IC50 (pIC50) is less than 4.00.

Consider `Nc1nc(NCc2ccccc2)c2ncn([C@H]3CC[C@@](O)(CP(=O)(O)O)C3)c2n1` (racemic), for which the pIC50 in the test with Plasmodium falciparum (setting [5]) was 4.10.

For `Nc1nc2c(ncn2[C@H]2CC[C@@](O)(CP(=O)(O)O)C2)c(=O)[nH]1` (racemic) [listing 2 of 2 here], the ΔTm in test [1] is -2 °C; in test [2], -4.5 °C; in test [3], -5.2 °C.
